According to patent publication US5856506A, “Phosphatase inhibitors and methods of use thereof” (University of Pittsburgh, priority 1997, dated 1999):

Key:
Format in all cases: biochemical
PP1 = experiment: Phosphatase activity by [32P] release from phosphorylase-a or phosphohistone (Honkanen method); settings: 100 μM inhibitor; none = 100
Description: (§1) It has been found in accordance with the present invention that compounds of formula I are capable of inhibiting serine/threonine protein phosphatases. Inhibition of serine/threonine protein phosphatases is defined herein as inhibition of the activity of one or more of PP1, PP2A or PP3 at a concentration of 100 μM or less of the inhibitor compound. In a preferred embodiment, the activity of the phosphatase is inhibited by at least 10%. In more preferred embodiments, the activity of the phophatase is inhibited by at least 25%, or even more preferably, by at least 50%. Inhibition of PP1, PP2A or PP3 can be assessed by methods known to one of ordinary skill in the art. Suitable assays are described, for example by Honkanen et al. (1994) Toxicon 32:339 and Honkanen et al. (1990) J. Biol. Chem. 265: 19401, the disclosures of which are incorporated herein by reference. Briefly, phosphatase activity is determined by quantifying the [^32 p] released from a ^32 p-labeled substrate such as phosphohistone or phosphorylase-a. Decreased [^32 p] release in the presence of the compounds of the present invention relative to control samples provides a measure of the ability of the compounds of the invention to inhibit PP1, PP2A or PP3.
(§2) Phosphatase activity and the inhibitory activity of the compounds of Table 1 were determined by the method of Honkanen et al. (1994) Toxicon 32:339. Briefly, phosphatase activity against phosphorylase-a or phosphohistone was 25 determined by the quantification of liberated [^32 p]. Assays, 80 μl total volume, containing 50 mM Tris-HCl, pH 7.4, 0.5 mM DTT, 1 mM EDTA (assay buffer) and [^32 p]phosphoprotein (1-2 μM PO4), were conducted as described previously (Honkanen et al., 1991 Mol. Pharmac. 40:577). Dephosphorylation reactions were routinely conducted for 5-10 min. using phosphorylase-a as a substrate and for 10-20 min. using phosphohistone. In all assays the dephosphorylation of substrate was kept to less than 10% of the total phosphorylated substrate available, and the reactions were adjusted to ensure that enzyme activity was linear with respect to enzyme concentration and time. [^32 p]Phosphate liberated by the enzymes was extracted as a phosphomolybdate complex and measured according to the methods of Killilea et al. (1978) Arch. Biochem. Biophys. 191:638. Inhibition of protein phosphatase activity by inhibitors was determined by adding the 100 μM of inhibitors to the enzyme mixture 5-10 min. prior to initiating the reaction with the addition of substrate.

PP2A = PP2A (Bos taurus, UniProt P67774); experiment: as above; settings: 100 μM inhibitor; none = 100; read-out: PP2A, percent inhibition relative to control (100%)
Description: as §1, §2

PP3 = experiment: as above; settings: 100 μM inhibitor; none = 100
Description: as §1, §2

Recombinant human CDC25B = experiment: CDC25B phosphatase assay, GST fusion protein, fluorescein diphosphate; settings: none = 100; 1 hour preincubation; concentration not given (0.3-100 μM tested)
Description: The compounds of the present invention are also capable of inhibiting dual specificity phosphatases, for example CDC25A and CDC25B. Phosphatases CDC25A and CDC25B are disclosed in U.S. Pat. No. 5,441,880. Inhibition of dual specificity phosphatases is defined herein as inhibition of the activity of CDC25A and/or CDC25B at a concentration of 100 μM of the inhibitor compound. In a preferred embodiment, the activity of the phosphatase is inhibited by at least 10%. In more preferred embodiments, the activity of the phophatase is inhibited by at least 25%, or even more preferably, by at least 50%. The ability of the compounds of the present invention to inhibit the phosphatases can be determined by measuring the effect of the compounds on the ability of CDC25 or CDC25B to dephosphorylate a substrate. Appropriate methods are known to those of ordinary skill in the art, and include, for example, calorimetric assays. A suitable assay is described in U.S. Pat. No. 5,441,880, the disclosure of which is incorporated herein by reference. […] The assay may be performed as a rapid calorimetric microtitration plate assay.
Compounds 1a-1r were assessed for ability to inhibit CDC25A and CDC25B activity. Recombinant human CDC25A and CDC25B were obtained as a glutahione-S-transferase (GST) fusion protein using human cDNA and standard molecular biological methods. The cDNA constructs are in a plasmid that is expressed in E. coli under the control of isopropyl-beta-D-[…] (IPTG). The bacterial pellet was disrupted by sonication, and centrifuged at 10,000×g. Using glutathione-agarose beads, the fusion protein was purified from postmicrosomal supernant fraction as described by Baratte et al. (1992) Anticancer Res. 12: 873-880. Phosphatase activity was assayed with a spectrofluorimeter under the following conditions: 1 unit (1 U=amount of protein that induces 33 fluoresence units/minute of product) of fusion protein in a final incubation mixture (150 μL) comprised of 25 mM Tris (pH=8.0), 5 mM EDTA, 33 μg/ml BSA, and 20 μM fluorescein diphosphate in 96-well microtiter plates. Plates were preincubated for 1 hour with 0 (control), 0.3, 1, 3, 10, 30, 100 μM compounds at room temperature. After the 1 hour incubation at room temperature, fluorescence of the fluorescein product (Ex. 485 nm; Em. 530 nm) were measured with a Biosystems Cytofluor II (Framingham, Mass.).

Chain of PP2A (P67774 whole entry): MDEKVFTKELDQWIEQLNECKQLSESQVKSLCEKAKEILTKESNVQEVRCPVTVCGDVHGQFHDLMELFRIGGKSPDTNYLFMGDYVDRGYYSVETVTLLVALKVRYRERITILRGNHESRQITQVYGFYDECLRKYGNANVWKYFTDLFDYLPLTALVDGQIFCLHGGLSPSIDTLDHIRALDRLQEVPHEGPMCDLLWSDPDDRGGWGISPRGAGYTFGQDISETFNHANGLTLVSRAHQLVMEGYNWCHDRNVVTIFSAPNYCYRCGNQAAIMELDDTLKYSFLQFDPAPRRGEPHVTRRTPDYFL

Row | Structure (SMILES) | PP1 remaining activity, percent of control (PP1) | PP2A remaining activity, % of control at 100 µM (PP2A) | PP3 remaining activity, percent of control (PP3) | CDC25B activity remaining, percent of control (Recombinant human CDC25B)
1 | Cc1oc(-c2ccccc2)nc1C(=O)NCCN(Cc1ccccc1)C(=O)CCC(NC(=O)C=Cc1ccccc1)C(=O)O (stereo not shown) [Compound 1o] | 64% | 88% | 13% | 66%
2 | O=C(C=Cc1ccccc1)NC(CCC(=O)N(CCNC(=O)c1nc(-c2ccccc2)oc1-c1ccccc1)Cc1ccccc1)C(=O)O (stereo not shown) [Compound 1r] | 53% | 68% | 15% | 56%
3 | CCCCCCN(CCNC(=O)c1nc(-c2ccccc2)oc1-c1ccccc1)C(=O)CCC(NC(=O)CCc1ccccc1)C(=O)O (stereo not shown) [Compound 1k] | 48% | 67% | 24% | 76%
4 | CCCCCCCCCC(=O)NC(CCC(=O)N(CCNC(=O)c1nc(-c2ccccc2)oc1C)Cc1ccccc1)C(=O)O (stereo not shown) [Compound 1c] |  | 129% | 28% | 42%
5 | CCCCCCCCCC(=O)NC(CCC(=O)N(CCCCCC)CCNC(=O)c1nc(-c2ccccc2)oc1-c1ccccc1)C(=O)O (stereo not shown) [Compound 1e] | 153% | 152% | 71% | 17%
6 | Cc1oc(-c2ccccc2)nc1C(=O)NCCN(C)C(=O)CCC(NC(=O)C=Cc1ccccc1)C(=O)O (stereo not shown) [Compound 1m] | 111% | 108% | 60% | 45%
7 | CCCCCCN(CCNC(=O)c1nc(-c2ccccc2)oc1C)C(=O)CCC(NC(=O)C=Cc1ccccc1)C(=O)O (stereo not shown) [Compound 1n] | 40% | 87% | 26% | 66%
8 | CCCCCCCCCC(=O)NC(CCC(=O)N(C)CCNC(=O)c1nc(-c2ccccc2)oc1C)C(=O)O (stereo not shown) [Compound 1a] | 121% | 100% | 76% | 106%
9 | CN(CCNC(=O)c1nc(-c2ccccc2)oc1-c1ccccc1)C(=O)CCC(NC(=O)CCc1ccccc1)C(=O)O (stereo not shown) [Compound 1j] | 80% | 72% | 38% | 90%
10 | Cc1oc(-c2ccccc2)nc1C(=O)NCCN(C)C(=O)CCC(NC(=O)CCc1ccccc1)C(=O)O (stereo not shown) [Compound 1g] | 53% | 109% | 21% | 61%
11 | CCCCCCCCCC(=O)NC(CCC(=O)N(CCCCCC)CCNC(=O)c1nc(-c2ccccc2)oc1C)C(=O)O (stereo not shown) [Compound 1b] | 59% | 135% | 32% | 44%
12 | CN(CCNC(=O)c1nc(-c2ccccc2)oc1-c1ccccc1)C(=O)CCC(NC(=O)C=Cc1ccccc1)C(=O)O (stereo not shown) [Compound 1p] | 65% | 99% | 68% | 87%
13 | CCCCCCN(CCNC(=O)c1nc(-c2ccccc2)oc1-c1ccccc1)C(=O)CCC(NC(=O)C=Cc1ccccc1)C(=O)O (stereo not shown) [Compound 1q] | 85% | 60% | 28% | 62%
14 | Cc1oc(-c2ccccc2)nc1C(=O)NCCN(Cc1ccccc1)C(=O)CCC(NC(=O)CCc1ccccc1)C(=O)O (stereo not shown) [Compound 1i] |  | 80% | 14% | 63%
15 | O=C(CCc1ccccc1)NC(CCC(=O)N(CCNC(=O)c1nc(-c2ccccc2)oc1-c1ccccc1)Cc1ccccc1)C(=O)O (stereo not shown) [Compound 1l] | 59% | 69% | 22% | 69%
